Assay [1] deals with GABA-A receptor; anion channel. Briefly: Binding affinity for GABA-A benzodiazepine receptor. The class given is protein-complex assay.
For assay [2], the target named is GABA-A receptor; anion channel. Briefly: Inhibition of [3H]flunitrazepam binding to rat brain GABA-A benzodiazepine receptor.
In assay [3] the target is T1, GABA-A receptor; alpha-1/beta-2/gamma-2 (Homo sapiens, UniProt P14867+P18507+P47870).
T1 sequence (P14867 whole entry): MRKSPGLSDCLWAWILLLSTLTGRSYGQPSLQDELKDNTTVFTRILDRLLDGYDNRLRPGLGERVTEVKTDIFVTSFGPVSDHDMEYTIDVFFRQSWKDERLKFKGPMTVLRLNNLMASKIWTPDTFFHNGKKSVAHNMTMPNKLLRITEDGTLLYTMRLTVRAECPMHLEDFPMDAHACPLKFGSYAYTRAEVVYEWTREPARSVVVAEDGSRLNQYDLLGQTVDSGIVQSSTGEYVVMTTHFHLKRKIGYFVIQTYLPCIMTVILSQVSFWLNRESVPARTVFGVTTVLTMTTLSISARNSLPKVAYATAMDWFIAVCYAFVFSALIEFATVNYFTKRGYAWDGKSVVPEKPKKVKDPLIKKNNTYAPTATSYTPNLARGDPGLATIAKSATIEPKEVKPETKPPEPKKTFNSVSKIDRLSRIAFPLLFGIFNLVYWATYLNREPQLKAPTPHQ
T1 sequence (P47870 whole entry): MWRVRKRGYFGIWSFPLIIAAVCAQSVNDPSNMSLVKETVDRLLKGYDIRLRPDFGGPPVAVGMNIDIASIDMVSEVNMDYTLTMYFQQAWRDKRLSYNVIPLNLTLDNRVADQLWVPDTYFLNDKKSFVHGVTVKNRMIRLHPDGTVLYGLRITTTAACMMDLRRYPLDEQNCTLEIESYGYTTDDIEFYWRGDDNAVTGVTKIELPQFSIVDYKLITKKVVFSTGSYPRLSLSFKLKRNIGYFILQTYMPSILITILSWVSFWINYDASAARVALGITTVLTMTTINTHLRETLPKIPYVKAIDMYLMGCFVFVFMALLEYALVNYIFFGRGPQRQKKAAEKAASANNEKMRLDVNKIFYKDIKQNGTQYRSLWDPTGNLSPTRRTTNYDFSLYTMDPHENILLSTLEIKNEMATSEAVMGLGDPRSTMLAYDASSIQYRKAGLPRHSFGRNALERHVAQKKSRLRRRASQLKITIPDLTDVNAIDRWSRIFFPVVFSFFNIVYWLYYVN
T1 sequence (P18507 whole entry): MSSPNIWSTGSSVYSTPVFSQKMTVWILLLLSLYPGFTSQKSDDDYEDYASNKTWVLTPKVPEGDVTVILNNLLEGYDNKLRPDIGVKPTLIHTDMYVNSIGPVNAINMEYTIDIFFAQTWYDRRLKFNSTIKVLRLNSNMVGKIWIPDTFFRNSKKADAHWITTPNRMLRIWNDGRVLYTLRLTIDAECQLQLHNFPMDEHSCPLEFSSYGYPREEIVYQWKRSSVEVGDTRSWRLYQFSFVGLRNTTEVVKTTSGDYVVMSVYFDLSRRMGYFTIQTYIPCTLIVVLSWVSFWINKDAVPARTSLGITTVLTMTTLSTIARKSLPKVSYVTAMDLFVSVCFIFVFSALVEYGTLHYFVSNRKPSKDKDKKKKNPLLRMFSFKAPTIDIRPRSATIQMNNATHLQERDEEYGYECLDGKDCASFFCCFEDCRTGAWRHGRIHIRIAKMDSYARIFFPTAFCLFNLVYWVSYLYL
Description: Effective concentration against human recombinant GABA-A receptor alpha-1-beta-2-gamma-2 subunits expressed in Xenopus oocytes. The class given is cell-based, Oocyte.

The target in assay [4] is D(3) dopamine receptor (Homo sapiens, UniProt P35462). Description: Binding affinity (in vitro) against Dopamine receptor D3 using radio-ligand binding assay. More on the design: species or system Sus scrofa.
Assay [5] concerns the target GABA-A receptor; anion channel. Description: Binding affinity for human cloned GABA-A benzodiazepine receptor. The assay is classed as protein-complex assay.
Assay [6] concerns the target 5-hydroxytryptamine receptor 1D (Sus scrofa, UniProt P79400). Description: Binding affinity (in vitro) against 5-hydroxytryptamine 1D receptor alpha using radio-ligand binding assay.
In assay [7] the target is Delta-type opioid receptor (Sus scrofa, UniProt P79291). Briefly: Binding affinity (in vitro) against Opioid receptor delta 1 using radio-ligand binding assay.
Sequence of Delta-type opioid receptor (P79291 whole entry): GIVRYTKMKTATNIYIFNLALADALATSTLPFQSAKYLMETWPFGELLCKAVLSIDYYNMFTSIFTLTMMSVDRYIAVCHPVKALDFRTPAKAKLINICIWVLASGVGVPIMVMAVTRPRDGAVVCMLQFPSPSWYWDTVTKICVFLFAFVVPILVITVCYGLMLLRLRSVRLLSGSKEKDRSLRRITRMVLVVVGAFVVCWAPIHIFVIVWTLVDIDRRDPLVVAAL

Sequence of 5-hydroxytryptamine receptor 1D (P79400 whole entry): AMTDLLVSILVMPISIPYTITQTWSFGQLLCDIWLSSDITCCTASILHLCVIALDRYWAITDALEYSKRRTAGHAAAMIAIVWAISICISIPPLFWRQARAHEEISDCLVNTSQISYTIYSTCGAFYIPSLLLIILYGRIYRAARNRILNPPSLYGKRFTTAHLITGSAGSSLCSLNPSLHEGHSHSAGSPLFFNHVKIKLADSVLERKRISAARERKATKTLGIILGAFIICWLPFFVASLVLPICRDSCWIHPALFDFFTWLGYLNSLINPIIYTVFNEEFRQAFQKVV
Sequence of D(3) dopamine receptor (P35462 whole entry): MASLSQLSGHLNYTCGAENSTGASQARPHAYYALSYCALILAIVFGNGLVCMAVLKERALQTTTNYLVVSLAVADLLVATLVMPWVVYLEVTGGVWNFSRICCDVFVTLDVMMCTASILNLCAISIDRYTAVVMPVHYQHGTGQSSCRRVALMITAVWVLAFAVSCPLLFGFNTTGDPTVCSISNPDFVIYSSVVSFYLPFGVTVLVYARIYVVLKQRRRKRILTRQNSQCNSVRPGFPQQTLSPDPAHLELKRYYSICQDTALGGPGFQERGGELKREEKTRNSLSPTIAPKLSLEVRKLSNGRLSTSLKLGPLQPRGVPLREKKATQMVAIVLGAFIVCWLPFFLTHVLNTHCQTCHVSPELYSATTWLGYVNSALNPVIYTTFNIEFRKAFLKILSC

Turning to `O=c1cc(-c2ccc(O)c(-c3c(O)cc(O)c4c(=O)cc(-c5ccc(O)cc5)oc34)c2)oc2cc(O)cc(O)c12` [AMENTOFLAVONE], the Ki (as a rule, a measure of affinity in units of concentration, obtained from inhibition or displacement) in assay [1] is 6 nM; in assay [4], 1240 nM; in assay [5], 6 nM; in assay [6] it was 4090 nM; in assay [7] it was 36.5 nM. The IC50 (commonly the concentration that gives 50% inhibition) in assay [2] amounted to 14.9 nM. Also, in assay [3], the 50% effective concentration (EC50) – broadly, the concentration at which the effect is half-maximal – stood at 3600 nM.

(Values after ChEMBL document CHEMBL1136098, “Semisynthetic preparation of amentoflavone: A negative modulator at GABA(A) receptors” (Bioorg Med Chem Lett, 2003).)
